≈ marks a conversion by molar mass, not a printed value. Where “and” joins values, the source holds several entries; their conditions need not be identical. Identical values can stand only once. Counter-ions that a name gives are not always drawn. Like-named read-outs stand apart in the source and are kept apart here.
Tests used:
[1] = Acute toxicity, oral, mouse (LD 50, Miller and Tainter); format: in vivo; conditions: in vivo, death rate checked for seven days, read-out: 50% lethal dose (LD 50) (converted)
Protocol: The acute toxicity of the compounds of formula (I) were evaluated orally (esophagean probe) on a mouse deprived of food 18 hours before the beginning of the test. The products were placed in suspension in a solution of dilute carboxymethyl cellulose. Calculation of the 50 lethal dose (LD 50) was effected according to the method of Miller and Tainter (Miller L. C., Tainter M. L., Proc. Soc. Exptl. Biol. Med. 1944, 57, 261-264).
The death rate was checked for seven days following the treatment.
Table III gives the 50% lethal doses (LD 50) in milligrammes per kilogramme body weight.

[2] = tested on: human blood-plaques (aggregation with D.P.A.); assay: Inhibition of blood-plaque aggregation induced by D.P.A.; format: cell-based; conditions: for Ratio of a (X) to a (R), D.P.A. (head drawn): X 2.5×10^-5 g/ml, R 5×10^-4 g/ml; for inhibition at 25 µg/mL: Homo sapiens, read-out: Inhibitory activity of the blood-plaque aggregation, D.P.A., a (X)
Description: (§1) The blood plaques used for these studies were human blood-plaques introduced into the test in the form of blood-plaque rich plasmas (B.P.R.P.).
(§2) These latter were obtained as water-repellent material by slow centrifugation from human blood samples.
(§3) The study of blood-plaque aggregation was made by means of an aggregate-meter with continuous agitation and graphic recording according to the conventional method. (PROST R. S., SOUVERAIN C. H., DOUMENC J., Etude de l'agregation plaquettaire a l'aide de l'agregametre de MUSTARD-Coagulation, 1971, 4, 2, 145-151).
(§4) The agents employed for inducing aggregation were diphosphoric adenosine acid (D.P.A.), 1-(3',4'-di-hydroxyphenyl)-2-methylamino ethanol (adrenaline) and collagene. All these reactants were prepared from mother solutions diluted in a Michaelis' buffer. Their concentration in the test may vary according to the affinity of the blood-plaques.
(§5) An optimum concentration is thus sought by successive tests on the same B.P.R.P.
(§6) The inhibitory activity on the aggregation was evaluated by addition of the product under study to the B.P.R.P. before introduction of the aggregating agent.
(§7) The concentrations of compounds of formula I (X) in the B.P.R.P. are: C (X)=2.5×10^-5 g/ml for aggregation with D.P.A. and adrenaline, and C (X)=2×10^-5 g/ml for collagene.
(§8) The reference product (R) is 2,6-bis (diethanolamino)-4,8-dipiperidinopyrimido[5,4-d]pyramidine (known under the trademark "Dipyridamole") used in the concentration C (R)=5×10^-4 g/ml for aggregation with D.P.A. and adrenaline and C (R)=2×10^-4 g/ml for aggregation with collagene.
(§9) The following table IV indicates the activity of some compounds of formula I: a (X) the activity of the reference product: a (R) and the different values of the ratio: [formula]

[3] = tested on: isolated heart of a gumea-pig; assay: Vaso-dilatatory activity, coronary flow of isolated perfused heart; conditions: for activation at 10 µg/mL: Locke, 37° C., read-out: Percentage flow increase P (X); for P (X) / P (R): relative to Dipyridamole, both 1×10^-5 g/ml
Protocol: The coronary flow is recorded, by means of an electronic device fitted with a Fleish totaliser, before and after addition of the substance X under study (concentration: 1×10^-5 g/ml), the reference product (R) being 2,6-bis (diethanolamino) 4,8-dipiperidinopyrimido[5,4-d]pyrimidine (known under the trademark "Dipyridamole") used at a concentration of 1×10^-5 g/ml.
The percentage flow increase P was calculated at the climax of the activity of X or R.

[4] = tested on: human blood-plaques (aggregation with adrenaline); assay: Inhibition of blood-plaque aggregation induced by adrenaline; format: cell-based; conditions: for inhibition at 25 µg/mL: Homo sapiens, C (X)=2.5×10^-5 g/ml, read-out: Inhibitory activity of the blood-plaque aggregation, ADRENALINE, a (X); for Ratio of a (X) to a (R), ADRENALINE (head drawn): X 2.5×10^-5 g/ml, R 5×10^-4 g/ml
Description: as §1, §2, §3, §4, §5, §6, §7, §8, §9

[5] = tested on: human blood-plaques (aggregation with collagene); assay: Inhibition of blood-plaque aggregation induced by collagene; format: cell-based; conditions: for inhibition at 20 µg/mL: Homo sapiens, read-out: Inhibitory activity of the blood-plaque aggregation, COLLAGENE, a (X); for inhibition at 20 µg/mL / Inhibitory activity of the blood-plaque aggregation, COLLAGENE, a (X): C (X)=2×10^-5 g/ml; for Ratio of a (X) to a (R), COLLAGENE (head drawn): X 2×10^-5 g/ml, R 2×10^-4 g/ml
Description: as §1, §2, §3, §4, §5, §6, §7, §8, §9

rat's isolated duodenum = assay: Spasmolytic activity on isolated duodenum contracted by barium chloride (Magnus); conditions: for IC50: Rattus norvegicus, barium chloride contraction, Tyrode, 38° C., read-out: Spasmolytic activity ED 50 (X); for ED 50 (R) / ED 50 (X): relative to papaverine hydrochloride
Protocol: The spasmolytic activity was studied on a rat's isolated duodenum maintained in a survival medium of an aerated Tyrode solution heated to 38° C. according to the technique of Magnus (Magnus R.-Archivs ges. Physiol., 1905, 180, 1-71).
The contracting agent used was barium chloride, the reference antogonist agent being papaverine hydrochloride (R). The average activity of the compounds of formula I (X) in comparison with that of the reference agent was expressed by calculating the ratio of the 50 efficient doses (ED 50) determined graphically on logarithmic paper: [formula]
For example: a substance having a relative activity expressed by the FIG. 2 presents an activity equal to twice that of papaverine hydrochloride.

[6] = tested on: phenylparaquinone (P.P.Q.) painful syndrome in a mouse; assay: Analgesic and anti-inflammatory activity, phenylparaquinone (P.P.Q.) painful syndrome; format: in vivo; conditions: for Analgesic and anti-inflammatory activity, percentage activity a(X): 50 mg/kg digestively; for a(X) / a(R), analgesic and anti-inflammatory activity: X 50 mg/kg, R (Galfenine) 25 mg/kg
Protocol: The intraperitoneal injection of phenylparaquinone (P.P.Q.) in a mouse causes the appearance of a painful syndrome appearing within 5 minutes of the injection and disappearing after about 30 minutes (SIEGMUND E. A., CADMUS A., LU G., J. Pharmacol. Exp. Therap. 1957, 119, 453). This painful syndrome manifests itself in the animal by a series of characteristic crises, more or less close together and fleeting, during which we can note a twisting or stretching of the body, a hollowing of the sides and a stretching of the hind legs.
It is therefore possible to note the number of crises in a given interval of time.
The preventive administration of analgesic or anti-inflammatory substances prevents the appearance of crises or reduces the frequency thereof.
The reference substance (R) used in the tests was the ester of N-(7-chloro-4 quinolyl) anthranilic acid and 2,3-dihydroxy n.propanol (known under the trademark Galfenine).
It was administered orally with a dose of 25 mg/kg.
The compounds of formula I (X) were administered digestively with a dose of 50 mg/kg.
The interval of time (t) which was chosen to evaluate the analgesic activity was between 10 and 15 minutes which is the period of maximum frequency of the crises. This activity was expressed in the following way:
n: number of crises observed in the control mice;
n': number of crises observed in mice previously treated with the reference substance (R);
n": number of crises observed in mice having received the substance (X).
The percentage activity of R is equal to [formula]
The percentage activity of X is equal to [formula]
The activity of X in relation to that of R is estimated by the ratio [formula]
For example: a compound X for which [formula] is 0.5 has an activity equal to half that of the reference product.

[7] = reference product, C (R)=5×10^-4 g/ml
[8] = crises between 10 and 15 minutes
[9] = 1×10^-5 g/ml, coronary flow at climax of activity

| Structure (SMILES) | LD50 at 168 h ([1]; po) | inhibition at 25 µg/mL [4] | Ratio of a (X) to a (R), ADRENALINE (head drawn) [4] | inhibition at 20 µg/mL [5] | Ratio of a (X) to a (R), COLLAGENE (head drawn) [5] | Ratio of a (X) to a (R), D.P.A. (head drawn) [2] | inhibition at 25 µg/mL ([2]; C (X)=2.5×10^-5 g/ml) | IC50 (rat's isolated duodenum) | ED 50 (R) / ED 50 (X) (rat's isolated duodenum) | Analgesic and anti-inflammatory activity, percentage activity a(X) [6, 8] | a(X) / a(R), analgesic and anti-inflammatory activity [6] | activation at 10 µg/mL [3, 9] | P (X) / P (R) [3] | also measured |
| --- | --- | --- | --- | --- | --- | --- | --- | --- | --- | --- | --- | --- | --- | --- |
| OCCN(CCO)c1nc(N2CCCCC2)c2nc(N(CCO)CCO)nc(N3CCCCC3)c2n1 [Dipyridamole, 2,6-bis (diethanolamino)-4,8-dipiperidinopyrimido[5,4-d]pyramidine, reference compound] |  |  |  |  |  |  |  |  |  |  |  |  |  | LD50 at 168 h [1]: 2150 mg/kg; Inhibitory activity of the blood-plaque aggregation, D.P.A., a (R) [2, 7]: 87% and 53% and 79% and 55% and 85%; Percentage flow increase P (R) ([3]; reference product, 1×10^-5 g/ml, coronary flow at climax of activity): 43% and 53% and 71%; Inhibitory activity of the blood-plaque aggregation, ADRENALINE, a (R) [4, 7]: 91% and 78% and 86% and 88% and 77%; Inhibitory activity of the blood-plaque aggregation, COLLAGENE, a (R) ([5]; reference product, C (R)=2×10^-4 g/ml): 36% |
| CN(C)CCCC(=O)c1cc2ccccc2s1 [Compound 4] | 950 mg/kg | 78% | 1 | 39% | 4.5×10^-1 |  |  |  |  |  |  |  |  |  |
| O=C(CCCN1CCCCC1)c1cc2ccccc2s1 [Compound 5] | 1300 mg/kg | 84% | 1.1 | 12% | 1.4×10^-1 | 1.5×10^-1 | 8% |  |  |  |  |  |  |  |
| C=CCN(CC=C)CCCC(=O)c1cc2ccccc2s1 [Compound 3, 1-(benzothien-2'-yl)-4-N,N-diallylamino butanone oxalate] |  |  |  | 13% | 1.95×10^-1 | 1.7×10^-1 | 15% | 1.2 µg/mL | 2.08 |  |  |  |  |  |
| CC(C)N(CCCC(=O)c1csc2ccccc12)C(C)C [Compound 12] | 500 mg/kg | 80% | 9.1×10^-1 | 12% | 2.3×10^-1 |  | 29% | 1.35 µg/mL (≈ 4.45 µM) | 4.8 | 68% | 1.5 | 33% | 6.25 × 10^-1 |  |
| CCCN(CCC)CCCC(=O)c1csc2ccccc12 [Compound 11] | 1100 mg/kg | 51% | 5.8×10^-1 | 12% | 3.3×10^-1 | 1.8×10^-1 | 10% | 1.05 µg/mL (≈ 3.46 µM) | 6.2 | 48% | 6.5 × 10^-1 | 41% | 7.75 × 10^-1 |  |
| O=C(CCCN1CCOCC1)c1cc2ccccc2s1 [Compound 6] |  |  |  |  | 3.5×10^-1 | 1.7×10^-1 | 15% |  |  | 55% | 7 × 10^-1 |  |  | Inhibitory activity of the blood-plaque aggregation, COLLAGENE, a (X) [5]: 32% |
| O=C(CCCN1CCCC1)c1csc2ccccc12 [Compound 13] | 760 mg/kg | 84% | 1.1 |  |  | 2.3×10^-1 | 18% | 2.25 µg/mL (≈ 8.23 µM) | 1.55 |  |  |  |  |  |
| O=C(CCCN1CCOCC1)c1cc2ccccc2s1 [Compound 1, 1-(benzothien-2'-yl)-4-N-morpholino butanone] | 1200 mg/kg | 9% | 1×10^-1 |  | 3.3×10^-1 |  |  |  |  |  |  | 28% | 6.5 × 10^-1 | Inhibitory activity of the blood-plaque aggregation, COLLAGENE, a (X) [5]: 12% |
| CCN(CC)CCCC(=O)c1csc2ccccc12 [Compound 9] | > 1200 mg/kg | 86% | 1 | 16% | 3×10^-1 | 1.9×10^-1 | 15% |  | 8.10 | 47% | 1 |  |  |  |
| O=C(CCCN1CCCCCC1)c1csc2ccccc12 [Compound 15] | 950 mg/kg | 82% | 9.5×10^-1 |  |  |  |  | 3 µg/mL (≈ 9.95 µM) | 1.6 | 51% | 1.13 | 172% | 2.42 | Inhibitory activity of the blood-plaque aggregation, D.P.A., a (X) ([2]; C (X)=2.5×10^-5 g/ml): 17% |
| O=C(OCC(O)CO)c1ccccc1Nc1ccnc2cc(Cl)ccc12 (stereo not shown) [Galfenine, ester of N-(7-chloro-4 quinolyl) anthranilic acid and 2,3-dihydroxy n.propanol, reference compound] |  |  |  |  |  |  |  |  |  |  |  |  |  | Analgesic and anti-inflammatory activity, percentage activity a(R) ([6]; reference substance, 25 mg/kg orally, crises between 10 and 15 minutes, 25 mg/kg): 75% and 77% and 45% and 74% |
| O=C(CCCN1CCCCC1)c1csc2ccccc12 [Compound 14] | 850 mg/kg | 42% | 5.5×10^-1 |  |  |  |  |  |  | 39% | 5.3 × 10^-1 |  |  |  |
